Values of other authors in patent US9381220B2, “Sceletium extract and uses thereof” (H. L. Hall & Sons Limited, priority 2009, dated 2016).

Assays:
PDE4 = details: Napoletano et al. 2001
5-HT uptake = 5-HT uptake (Homo sapiens, UniProt P31645); details: as described in U.S. Pat. No. 6,288,104
[1] = fermentation, exposure to light, exposure to heat, aqueous medium

Sequence of 5-HT uptake (P31645 whole entry): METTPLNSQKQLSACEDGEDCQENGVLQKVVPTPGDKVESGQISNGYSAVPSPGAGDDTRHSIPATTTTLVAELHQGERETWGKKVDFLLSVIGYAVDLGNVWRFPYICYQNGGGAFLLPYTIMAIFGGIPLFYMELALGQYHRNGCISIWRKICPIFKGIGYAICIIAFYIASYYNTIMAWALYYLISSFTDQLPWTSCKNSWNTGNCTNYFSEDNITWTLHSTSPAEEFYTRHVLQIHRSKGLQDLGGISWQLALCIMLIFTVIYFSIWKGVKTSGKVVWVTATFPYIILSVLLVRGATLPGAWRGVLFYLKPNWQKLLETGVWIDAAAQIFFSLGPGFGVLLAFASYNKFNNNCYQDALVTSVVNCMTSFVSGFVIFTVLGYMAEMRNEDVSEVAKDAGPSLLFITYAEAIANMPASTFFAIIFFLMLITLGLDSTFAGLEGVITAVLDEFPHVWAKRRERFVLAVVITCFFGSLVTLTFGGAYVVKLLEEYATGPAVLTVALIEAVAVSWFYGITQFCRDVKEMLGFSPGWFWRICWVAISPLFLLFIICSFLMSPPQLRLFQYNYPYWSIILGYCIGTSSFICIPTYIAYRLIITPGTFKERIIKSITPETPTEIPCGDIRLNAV

## COc1ccc(C23CCC(=O)CC2N(C)CC3)cc1OC.Cl (stereo not drawn) [Mesembrine hydrochloride]
PDE4
  PDE4 inhibition: weak PDE4 inhibitor

## COc1ccc(C23C=CC(O)CC2N(C)CC3)cc1OC (stereo not drawn) [mesembrenol]
5-HT uptake
  5-HT uptake inhibitory activity: potent 5-HT uptake inhibitory activity

## COc1ccc([C@@]23CCC(=O)C[C@@H]2N(C)CC3)cc1OC [mesembrine]
[1]
  stability: unstable
